Values joined by “and” are separate entries in the source; they are usually repeats but may differ in a detail not shown here. Equal values may be shown once. *1 amine or outer side, *2 acyl side, *3 side chain or, on linkers, in order; H or OH if unused. Where a SMILES comes first, the peptide text is derived from it. Bridges are numbered along the chain shown (N, C = ends). Roman numbers before positions name the chains, in order. [ ]: non-standard residue; d: D form. Actinocin(9to1) = Cc1c2oc3c(C)ccc(C(=O)[*:1])c3nc-2c(C(=O)[*:2])c(N)c1=O; NMeV = CN[C@H](C(=O)O)C(C)C; Sar = CNCC(=O)O
Columns and labels:
Type in all cases: cell-based
[1] = test system: latently HIV-1 infected CA5 T cells
[2] = test system: latently HIV-2 infected J2574 reporter T cells; test: Priming of latent HIV-2 infection in J2574 reporter T cells infected with HIV-2 7312A
Description: J2574 reporter T cells were infected with HIV-2 7312A and a latently infected cell population was established (>90% latently infected cells). […] Reactivation levels were determined 24 hours post HRF activation by quantifying the level of GFP-positive cells using flow cytometric analysis.
J2574 reporter T cells were generated by retrovirally transducing Jurkat T cells with a HIV-1 reporter construct (p2574) in which the HIV-1 LTR controls the expression of GFP. The HIV-1 LTR and the GFP gene are separated by a 2,500 base pair (bp) spacer element. Lentiviral particles were produced by transfecting 293T cells with p2574 and supplying gag-pol-rev-tat in trans. VSV-G was used as viral envelope protein. Following lentiviral transduction of Jurkat cells, all cells that spontaneously expressed GFP were removed by cell sorting. The GFP-negative population was then activated with PMA to identify all cells that would harbor an inducible LTR-GFP-LTR integration event. Cells that turned GFP-positive following stimulation were again selected by cell sorting. GFP expression in this population ceased after a few days leaving a population of GFP-negative reporter cells. The amount of founder cells for this population is calculated to represent >50,000 individual integration events.
To determine the ability of dactinomycin to prime a latent HIV-2 infection, a latently HIV-2 infected population of GFP reporter T cells was tested. Briefly, to create the latent HIV-2 infected population, J2574 reporter cells were infected with HIV-2 7312A and a population of latently HIV-2 infected cells was generated by removing the actively infected, GFP-positive cells using a fluorescence activated cell sorter.

[3] = test system: latently HIV-1 infected CA5 T cells; remark: listed apart in the source
Description: Infection levels in the cell cultures were monitored by flow cytometric analysis of EGFP expression. Flow cytometric analysis was performed on a GUAVA EasyCyte (Millipore; Billerica, Mass.), or a LSRII (Becton & Dickinson; Franklin Lakes, N.J.).
Bacterial growth. Bacteria from various sources were isolated on TSA II agar plates containing 5% sheep blood. Bacterial isolates were then grown in RPMI 1640 medium supplemented with 10% FBS. After two days of incubation at 37° C. bacteria were pelleted and resuspended in RPMI medium to an optical density (OD600) of 8, aliquoted and frozen at −80° C. Unless otherwise indicated, Massilia timonae was grown in RPMI 1640 medium supplemented with 10% FBS. Typically, medium was inoculated with Massilia timonae from frozen stocks to an OD600 of 0.01. After 48 hours at 37° C., the culture was centrifuged at 3200 g to separate bacteria from the culture medium. Bacteria were resuspended in fresh medium to an OD600 of 8 and frozen to be used as references and stock cultures. The supernatant was then centrifuged at 10,000 g for 20 minutes and sterilized by passage through a 0.2 μm PVDF filter with low protein binding ability. HRF activity was determined by its ability to reactivate latent HIV-1 infection in CA5 cells. Only supernatants of which 6 μl reactivated infection in at least 60% of CA5 cells were used to study HRF properties.
Flow cytometry. Infection levels in the cell cultures were monitored by flow cytometric (FCM) analysis of GFP expression. FCM analysis was performed on a GUAVA EasyCyte (GUAVA Technologies, Inc.; Millipore; Billerica, Mass.) and a BD FACSCalibur or a LSRII (Becton & Dickinson; Franklin Lakes, N.J.). Cell sorting experiments were performed using a FACSAria™ Flow Cytometer (Becton&Dickinson). Data analysis was performed using either CellQuest (Becton&Dickinson) or GUAVA Express (GUAVA Technologies, Inc.).
To identify the optimal concentration of dactinomycin, CA5 T cells were pretreated with increasing concentrations of dactinomycin (0.0001 and 1 μg/ml), and then left untreated or stimulated with a sub-optimal concentration of HRF or TNF-α. Representative results for stimulation with HRF are depicted in FIG. 3. The chosen HRF concentration has only minimal HIV-1 reactivating effect by itself (15% reactivation over background). Twenty four hours after activator addition, levels of HIV-1 reactivation were determined as the percentage of GFP-positive cells using flow cytometric analysis, which allowed for the simultaneous determination of cell viability. […] Optimal pretreatment time was 18 hours. Maximum reactivation effects were seen 48 hours after stimulation.

[4] = test system: chronically actively infected T cell lines (JNLG#35 and JNLG#44); test: Active HIV-1 transcription in chronically actively infected T cell lines JNLG#35 and JNLG#44 (GFP MCF); conditions: 48 hours
Description: Changes in HIV-1 transcription levels were determined after 48 hours by measuring GFP mean channel fluorescence intensity (GFP MCF). GFP MCF was plotted over the drug concentration for dactinomycin (FIG. 12A), the DNA intercalators daunorubicin (DM) (FIG. 12B) and rebeccamycin (RM) (FIG. 12C), as well as the transcription inhibitors ICRF-193 (FIG. 12D), DRB (FIG. 12E) and α-amanitin (FIG. 12F). The size of symbols indicates the respective cell viability in the sample (size range adjusted to 5-95%).
For this purpose, each of the compounds was titrated over a relevant range of concentrations on two chronically actively infected T cell lines (JNLG#35 and JNLG#44). These clonal cell lines are infected with a GFP-reporter virus. Forty eight hours after addition of the compounds, the effect of each compound on HIV-1 transcription was determined by flow cytometric analysis quantifying GFP mean channel fluorescence intensity (MCF).

[5] = test system: NF-κB p50; test: NF-κB p50 activity in nuclear extracts of latent CA5 T cells (TransAM NF-κB family ELISA)
Description: FIGS. 7A-7D are graphs showing the kinetics of HRF-mediated induction of NF-κB activity. Jurkat or latently HIV-1 infected CA5 T cells were stimulated with optimal concentrations of PMA and HRF, and cells were harvested at the indicated time points. Nuclear extracts were generated and (FIGS. 7A and 7C) NF-κB p50 activity and (FIGS. 7B and 7D) NF-κB p65 activity were determined using the TransAM™ NF-κB family ELISA kit (Active Motif; Carlsbad, Calif.).
Cells were grown in RPMI medium supplemented with 10% FBS and 1% PSG to approximately 5×10^5 cells per milliliter. Cells were centrifuged and resuspended in fresh pre-warmed medium. PMA, HRF and/or JNKiV were added immediately at the indicated concentrations. The final cell density for the assay was 1×10^6 cells per milliliter. The culture flasks were kept in a humidified CO2 incubator at 37° C. For each time point, a 1 ml cell suspension was removed and immediately centrifuged at full speed in a tabletop centrifuge for 30 seconds. […] The protein concentration of the extracts was determined by using the BCA protein assay Kit (ThermoFisher). […] The absorbance at 595 nm was determined using a 96 well plate reader (Synergy HT, BIO-Tek; Winooski, Vt.).
NF-κB activity in nuclear extracts was quantified using the TransAM™ NF-κB family ELISA kit from Active Motif, Inc. (Carlsbad, Calif.) according to the manufacturer's instructions.

## Cc1c2oc3c(C)ccc(C(=O)N[C@@H]4C(=O)N[C@H](C(C)C)C(=O)N5CCC[C@H]5C(=O)N(C)CC(=O)N(C)[C@@H](C(C)C)C(=O)O[C@@H]4C)c3nc-2c(C(=O)N[C@@H]2C(=O)N[C@H](C(C)C)C(=O)N3CCC[C@H]3C(=O)N(C)CC(=O)N(C)[C@@H](C(C)C)C(=O)O[C@@H]2C)c(N)c1=O [dactinomycin] (I: T[dV]P[Sar][NMeV] / II: T[dV]P[Sar][NMeV]; ester I:1-I:C, II:1-II:C; linker I:N-II:N via Actinocin(9to1))
[1]
  priming effects with low concentrations of TNF-α or PMA as reactivating agents: Priming effects of dactinomycin were also observed
[1]; CA5 cells, same sense integration, 4 ng/ml, 18 hours pretreatment
  priming effect for reactivation by TNF-α: exerted its priming effect in each integration scenario
[1]; observed at the onset of drug toxicities
  concentrations acting as inhibitor of HIV-1 expression and reactivation: ≥ 10 ng/mL
[1]; pretreatment, then sub-optimal HRF or TNF-α
  concentrations at which a priming effect was observed: ≥ 0.5 ng/mL
[2]; 18 hours pretreatment, sub-optimal HRF
  concentration range that efficiently primed latent HIV-2 infection for reactivation: 2 to 8 ng/mL
[2]; costimulation: dactinomycin pretreatment plus sub-optimal HRF
  HIV-2 reactivation levels: up to 90%
[3]; CA5 cells pretreated with increasing concentrations
  priming effect on HIV-1 reactivation by sub-optimal dose of HRF: strong priming effect
[3]; pretreatment, then sub-optimal HRF or TNF-α, both T cell lines
  concentration of optimal priming activity: about 4 ng/ml and ~3.18 nM
[4]
  effect on active HIV-1 infection / transcription (GFP MCF): did not boost active infection, but rather inhibited active infection

B1: HRF: flagellin polypeptide from Massilia timonae (SEQ ID NO:10), used as bacterial culture supernatant (protein)
chain: MASVINTNVPSLNSQRNLSTSQAQLNTSIQRLSSGMRINSAKDDAAGLAISDRMNSQIKGMTQATRNANDGVSMAQTAEGALSSSGDILQRIRELAVQSSNSSNSASDRKALQTEVTQLSSELNRIANTTEFNGQKLMDGTLGTANFQVGANAGQLISMTGANFNTSVYGNNQIAGDAAKAAATTSAAATGAFTISGYLGTSAAINTTDADTAKTIAASINNVTGDTGVTATARTDSFLKSAGGAHTMSLASDNSGTGEAVDISFTVGDGGDTADDYAAAISAFNAQTAKTGVTAEYDAVEKGLKLTNSAGENISLTNKAGSADIDMDTYAADGALMASALTLEAGDVGVANGRVTMDSEKSFSVAEGTDTGFELADSSALKSVAKIDISDFEGAQEAIKVADAALSAVNSQRAEYGALQSRFESAISNLSSSTENLSASRSRIVDTDFAAETAKMTRGQILQQAGTSMLAQANSLPNGVLSLLRG
[1]; compared with Salmonella typhimurium flagellin
  efficiency of HIV-1 reactivation: same efficiency as Salmonella typhimurium flagellin
[1]; compared with TNFα or PMA
  potency of activating latent HIV-1 provirus: potency comparable to that of TNFα or PMA
[2]; sub-optimal dose of HRF by itself
  HIV-2 reactivation (cells): 10%
[3]; sub-optimal HRF concentration by itself
  HIV-1 reactivation over background: 15%
[5]
  NF-κB p50 activity after the first 4 hours: stabilizes at an elevated level
